Experimental data taken from US20150307539A1, “USE OF SULPHATED G[…] PROMOTERS OF NEURITIC GROWTH, M[…] INHIBITING THE PROLIFERATION OF ASTROGLIA AND MICROGLIA” (CONSEJO SUPERIOR DE INVESTIGACIONES CIENTIFICAS (CSIC), priority 2012, published 2015).

Key:
[1] = test system: Astrocytes (primary astroblasts from cerebral cortices of postnatal rats); experiment: Inhibition of astroglial cell proliferation, primary astroblasts; format: cell-based, rat; settings: for IC50: Astrocytes, astroglia, rat, IC50 ± SE
Excerpt: (§1) To study the microglial and astroglial cell proliferation two cell lines of murine microglia were used (BV-2, N13), as well as primary astroblasts isolated from cerebral cortices of postnatal rats on day zero (P0). The cells were kept in DMEM plus 10% SBF, grown and treated for testing the inhibition of cell proliferation, as published earlier by the applicants (I. Garcia-Alvarez et al., J Med Chem 50, 364 (Jan. 25, 2007)). […] It was concluded that the inhibitory activity of IG20-NBD is not affected by the presence of the fluorescent group, as its IC50 is very similar to that obtained for the uncombined glycoside IG-20, which was used as a control in these tests.

[2] = test system: N13 microglia; experiment: Inhibition of microglial cell proliferation, N13; format: cell-based, mouse; settings: for IC50: N13, microglia, mouse, IC50 ± SE
Excerpt: as §1

[3] = test system: neurons of spinal ganglia (SG) of rat embryos (E15); experiment: Neuritic outgrowth of spinal ganglia neurons co-cultured on aldynoglia; format: cell-based
Protocol: Spinal ganglia (SG) of rat embryos (E15) were dissected and incubated for 12 hours on axon growth-promoting cells (aldynoglia) to allow cellular adhesion of the neurons contained in the SG to the aldynoglia substrate. Next, different concentrations of IG-20, compound 3 produced as described in the synthesis examples, were added. […] The presence of total cells is shown by the fluorescent signal of the Hoechst-marked nuclei (FIG. 1a, 1b, 1c). The nuclei remote from the central body are aldynoglia cells or those that migrate from the SG. The neurofilament images were extracted (FIG. 1g, 1h, 1i) and measured, and the neuritic growth area was compared to the controls (FIG. 1j, 1k). […] A net increase in the neuritic growth area of 1250 μm^2 more than the control with aldynoglia cells (FIG. 1k) was produced. The average speed of neuritic outgrowth in the presence of aldynoglia, 625 μm/72 h corresponding to […], was duplicated in the presence of IG-20 (5 μM) up to 1250 μm/72 h, which corresponds to 17.36 μm/h. Calibration bars at 500 μm; (*) correspond to P<0.05 (P=0.019).

[4] = test system: BV-2 microglia; experiment: Inhibition of microglial cell proliferation, BV-2; format: cell-based; settings: mouse, IC50 ± SE
Excerpt: as §1

[5] = target: T1, RhoGDIα protein (Rattus norvegicus, UniProt Q5XI73); experiment: Co-immunoprecipitation with anti-RhoGDIα antibody (Western blot and MS), primary astrocytes; format: binding; settings: primary astrocytes treated with 30 μM, cytosol fraction
T1 construct: This was verified by RhoGDIα immunoprecipitation in the microglial cell line BV-2, and also in primary astrocyte cultures; endogenous in cells; host or cells: primary astrocyte cultures
T1 sequence (Q5XI73 1-204): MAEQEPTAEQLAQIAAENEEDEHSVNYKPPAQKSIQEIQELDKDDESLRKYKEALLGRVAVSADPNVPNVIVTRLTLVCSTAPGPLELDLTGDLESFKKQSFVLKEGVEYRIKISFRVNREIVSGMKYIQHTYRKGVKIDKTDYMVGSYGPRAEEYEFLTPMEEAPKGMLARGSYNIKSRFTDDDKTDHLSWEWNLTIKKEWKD
Protocol: (§2) Primary astrocyte and microglia cells (BV-2) were treated with the glycoside IG-20 at 30 μM, lysed and subjected to cell fractionation by differential centrifugation. The soluble fraction was collected and mixed with lysis buffer (1:1). Anti-RhoGDIα antibody (15 μg) was added and it was incubated with rotation at 4° C. overnight. It was immunoprecipitated with Protein A-Sepharose (20 μl) having been previously washed with PBS and centrifuged for 3 minutes at 1100 rpm. The previous mixture was added to the Protein A-Sepharose (1:1). This mixture was incubated with rotation at 4° C. for an hour and a half, and afterwards centrifuged for 5 minutes at 2500 rpm at 4° C. After discarding the supernatant, the precipitate was washed three times with lysis buffer. The immunocomplex of the Protein A-Sepharose was eluted with five volumes of the elution buffer (0.1 M glycine, pH=2.9) and a neutralising volume of 1M tris-HCl, pH=9. The mixture was centrifuged for five minutes at 2500 rpm at 4° C. and the supernatant was collected. […]
(§3) This was verified by RhoGDIα immunoprecipitation in the microglial cell line BV-2, and also in primary astrocyte cultures. […] This was detected by MS as a peak in the mass to charge ratio of 550 (FIG. 4c, 4d), which corresponds to the synthetic glycoside. […]

[6] = test system: oligodendrocytes and astroglia from cerebral cortices of postnatal rats P0-P1; experiment: Oligodendrocyte growth, myelin (MBP) expression and astroglia (GFAP) inhibition in cortical glial culture; format: cell-based, rat; settings: 30 μM, two weeks culture
Protocol: To study how the compound having formula I affects the growth of oligodendrocytes, the expression of myelin and the inhibition of astroglia, cerebral cortices of postnatal rats P0-P1 were dissected and enzymatically dissociated for cell culture. After two weeks incubation the culture flasks were stirred for 12 hours. The cells in suspension were harvested, the microglia were removed, and then cultured in DMEM plus SBF 10%. It was incubated for 6 hours to facilitate cell adhesion and the IG-20 (30 μM) was added to the treated group. The cells were cultured for two weeks and the medium was replaced every three days.
In both cases the differences were very significant. It was notable that the astroglial cells were large compared with the oligodendrocytes, which could scarcely be detected in the untreated controls (arrow in 2a, b). […] GFAP, glial fibrillary acidic protein; MBP, myelin basic protein; calibration bars at 75 μm (a, c) and 25 μm (b), as shown; (***) corresponds to P<0.001.

[7] = target: T2, RhoGDIα protein (Mus musculus, UniProt Q99PT1); experiment: Co-immunoprecipitation with anti-RhoGDIα antibody (Western blot and MS), BV-2 microglia; format: binding; settings: BV-2 microglia treated with 30 μM, cytosol fraction
T2 construct: This was verified by RhoGDIα immunoprecipitation in the microglial cell line BV-2; endogenous in cells; host or cells: BV-2 microglial cell line
T2 sequence (Q99PT1 1-204): T1 sequence (Q5XI73 1-204)
Protocol: as §2, §3

Row | SMILES | activity in astrocytes compared with IG-20 ([1]; 30 μM compared with 9.3 μM) | IC50 [1] | IC50 [2] | microglial inhibition compared with IG-20 ([2]; microglia) | IC50 ([1]; Astrocyte) | net increase in the neuritic growth area more than the control with aldynoglia cells ([3]; 5 μM, 3 days incubation) | neuritic outgrowth compared with control aldynoglia ([3]; 5 μM, 3 days incubation, SG/aldynoglia co-culture) | average speed of neuritic outgrowth ([3]; 5 μM, control aldynoglia 8.3 μm/h) | average speed of neuritic outgrowth ([3]; 5 μM, control aldynoglia 625 μm/72 h) | neuritic outgrowth at five-fold increased concentration ([3]; five-fold increase of 5 μM, 3 days incubation) | IC50 [4] | interaction with RhoGDIα (co-immunoprecipitation) [5] | GFAP marking compared with untreated control [6] | MBP signal compared with untreated control [6] | increase of mature oligodendroglia, MBP+ [6] | oligodendrocyte size relative to controls [6] | reduction of the proportion of GFAP+ cells (astroglia) [6] | interaction with RhoGDIα (co-immunoprecipitation) [7]
1 | CCCCCCCC/C=C\CCCCCCCCO[C@H]1O[C@H](COS(=O)(=O)[O-])[C@@H](O)[C@H](OS(=O)(=O)[O-])[C@H]1NC(=O)C(F)(F)F.[K+].[K+] [Disulphated IG-20, potash from oleyl N-trifluoroacetyl-3,6-O-di-(oxo-sulphonyl)-α-D-glucosaminide] | reduced its activity by three | 30 µM | 3 ± 0.8 µM | microglial inhibition was not affected | – | – | – | – | – | – | – | – | – | – | – | – | – | –
2 | CCCCCCCC/C=C\CCCCCCCCO[C@H]1O[C@H](COS(=O)(=O)O)[C@@H](O)[C@H](O)[C@H]1NC(=O)CCCCCNc1ccc([N+](=O)[O-])c2nonc12 [IG20-NBD, potash from oleyl 2-[6-(7-nitrobenzofurazan)-aminohexanamide]-6-O-(oxo-sulphonyl)-α-D-glucosaminide] | – | – | 7.8 µM | – | 11.4 µM | – | – | – | – | – | – | – | – | – | – | – | – | –
3 | CCCCCCCC/C=C\CCCCCCCCO[C@H]1O[C@H](COS(=O)(=O)[O-])[C@@H](O)[C@H](O)C1NC(C)=O.[K+] (stereo partly drawn) [IG-20, potash from oleyl N-acetyl-6-O-(oxo-sulphonyl)-α-D-glucosaminide] | – | – | 3.4 µM | – | 9.3 µM | 1250 μm^2 | profuse and significant increase in neuritic outgrowth | 17.36 μm/h | 1250 μm/72 h | reduced this neuritic outgrowth | 21 µM | interacts directly with the RhoGDIα protein | dramatic reduction in GFAP marking | increase in the MBP signal | 10% | 3-4 times larger than the controls | 20% | interacts directly with the RhoGDIα protein
